{"source": "patent US20120172292A1", "about": "“METHOD FOR PROTECTION OF ANTIMICROBIAL AND ANTICANCER DRUGS FROM INACTIVATION BY NITRIC OXIDE” (NEW YORK UNIVERSITY, priority 2009, published 2012)", "key": {"[1]": {"tested_on": "Streptococcus C203", "conditions": "cited from earlier work"}, "[2]": {"tested_on": "Streptococcus", "conditions": "cited from earlier work"}, "[3]": {"tested_on": "S.aureus 4220 and Δnos", "type": "cell-based", "conditions": "0.4 μg/ml CEF"}, "[4]": {"tested_on": "B.subtilis 6051 and Δnos", "type": "cell-based", "conditions": "25 μg/ml cefuroxime"}, "[5]": {"tested_on": "B.anthracis", "type": "cell-based"}, "[6]": {"tested_on": "B.anthracis", "type": "cell-based", "conditions": "CuFL 20 μM"}, "[7]": {"tested_on": "B. subtilis", "type": "cell-based"}, "[8]": {"tested_on": "B.subtilis", "type": "cell-based"}, "[9]": {"tested_on": "HepG2 human hepatocytes"}, "[10]": {"tested_on": "B.subtilis", "assay": "Growth of B.subtilis with ACR or AO premixed with NO donor", "type": "cell-based"}, "[11]": {"tested_on": "S. aureus", "conditions": "cited from earlier work"}}, "note": "“And” between values parts separate entries of the source, which are not always exact repeats. Equal entries are not always repeated."}
{"smiles": "COc1cc2c(N)c3ccc([N+](=O)[O-])cc3[n+]([O-])c2cc1OC", "note": "[9-Amino-2,3-dimethoxy-6-nitroacridine 10-oxides]", "values": [{"measurement": "MIC", "setting": "[1]", "result": "20 nM and ~6 ng/ml"}]}
{"smiles": "Nc1c2ccccc2nc2cc([N+](=O)[O-])ccc12", "note": "[3-nitro-9-aminoacridine]", "values": [{"measurement": "MIC", "setting": "[2]", "result": "1.5 μM and ~0.4 μg/ml"}]}
{"smiles": "CO/N=C(\\C(=O)N[C@@H]1C(=O)N2C(C(=O)O)=C(COC(N)=O)CS[C@H]12)c1ccco1", "note": "[cefuroxime]", "values": [{"measurement": "growth inhibition of nos-deficient versus wild type cells", "setting": "[3]", "result": "much greater extent"}, {"measurement": "killing of nos deficient versus wt cells", "setting": "[4]", "result": "much more efficiently than wt cells"}, {"measurement": "killing of nos deficient versus wt cells", "setting": "[5]", "result": "much more efficiently than wt cells"}, {"measurement": "NO production after antibiotic challenge", "setting": "[6]", "result": "greatly stimulated NO production"}, {"measurement": "end products of NO oxidation (nitrite/nitrate) in growing culture after challenge", "setting": "[7]", "result": "increase"}]}
{"smiles": "c1ccc(-c2ccccn2)nc1", "note": "[bipyridyl]", "values": [{"measurement": "effect of pretreatment on toxicity of ACR", "setting": "[8]", "result": "substantially decreased the toxicity of ACR"}]}
{"smiles": "COC(=O)[C@@H](N)CCCNC(=N)N[N+](=O)[O-]", "note": "[L-NAME, N G -nitro-L-arginine methyl ester]", "values": [{"measurement": "sensitivity of hepatocytes to AMSAcrine after inhibition of cellular NOS", "setting": "[9]; 4 mM L-NAME 8 hours prior to 20 μM AMSAcrine", "result": "increased sensitization"}]}
{"smiles": "CN(C)c1ccc2cc3ccc(N(C)C)cc3nc2c1", "note": "[AO, acridine orange]", "values": [{"measurement": "effect of NO treatment on antibacterial activity", "setting": "[10]", "result": "unaffected by NO treatment"}, {"measurement": "antibacterial effect compared with ACR", "setting": "[10]; 10 μg/ml", "result": "significantly less than that of ACR"}]}
{"smiles": "Cc1cc2cc3ccc(N(C)C)cc3[n+](C)c2cc1N.[Cl-]", "note": "[Flavicid]", "values": [{"measurement": "MIC", "setting": "[11]", "result": "10 μM and ~2.6 μg/ml"}]}
{"smiles": "COc1cc(NS(C)(=O)=O)ccc1Nc1c2ccccc2nc2ccccc12", "note": "[AMSAcrine]", "values": [{"measurement": "cell survival, AMSAcrine preincubated with exogenous NO versus AMSAcrine alone", "setting": "[9]; 20 μM AMSAcrine, 100 μM MAHMA NONOate, viability 24 hours later", "result": 5.5, "unit": "fold"}]}
